Where no end group is shown, it is not given here.

This assay deals with β-pancreatic cells. The assay is described as follows: Electrical signals (action potentials) of β-pancreatic cells in culture on the microelectrode sensor of FIG. 1. It counts as cell-based. How it is done: In the example embodiment shown in FIG. 1, the sensor 2 includes a set of 60 microelectrodes distributed over 1 mm^2. The microelectrodes 21 have a disk shape 10 μm in diameter. The sensor 2 also includes β-pancreatic cells 23 in culture on the set of 60 microelectrodes 21. Laboratory tests have been conducted on the sensor 2 of FIG. 1. The first line of FIG. 2 specifies the times at which glucose is present at 20 mM, i.e. from 0 to 50 min. The second line specifies the times at which diazoxide is present at 200 μM, i.e. from around 13 to 16 min and around 27 to 35 min. […] An action potential waveform is visible at the dotted vertical line. The first line of FIG. 4 specifies the time at which the β-pancreatic cells 23 of the sensor 2 are placed in contact with the incretin hormone GLP-1, shown by a vertical arrow.

Turning to `CC1=NS(=O)(=O)c2cc(Cl)ccc2N1` [diazoxide], the “reversibility of the diazoxide effect on electrical activation” value (FIG. 2, after removal of diazoxide, glucose 20 mM alone) is listed as “not definitive”. Besides, the “physiological activity (action potentials) of the β-pancreatic cells of the sensor in the presence of diazoxide” value (FIG. 2, diazoxide 200 μM (around 13 to 16 min and 27 to 35 min) with glucose 20 mM) is on record as “basal physiological activity”.

As to “GLP-1: incretin hormone, a physiological amplifier of the glucose response (HAEGTFTSDVSSYLEGQAAKEFIAWLVKGR; ends and bridges not checked; UniProt P01275 98-127, looked up)”, the “time after GLP-1 injection until electrical activation increases” value (FIG. 4) is “twenty”. Besides, the “electrical activation (action potentials) of the β-pancreatic cells after GLP-1” value (FIG. 4, after injection of the incretin hormone GLP-1) is “increases significantly”.

The values are drawn from patent publication US9962113B2, “Sensor for measuring the activity of beta-pancreatic cells or of islets of langerhans, manufacture and use of such a sensor” (UNIVERSITE DE BORDEAUX 1, priority 2010, dated 2018).
